Where two headings read alike, the source gives them in different places.
What was measured:
Type in all cases: in vivo
[1] = tested on: Diabrotica balteata (Corn Root Worm); experiment: Diabrotica balteata (corn root worm), sprayed maize sprouts on agar, mortality; settings: 96 h, application rate 200 ppm, L2 larvae, 4 days after infestation, read-out: mortality
Procedure: Diabrotica balteata (Corn Root Worm):
Maize sprouts placed onto an agar layer in 24-well microtiter plates were treated with aqueous test solutions prepared from 10′000 ppm DMSO stock solutions by spraying. After drying, the plates were infested with L2 larvae (6 to 10 per well). The samples were assessed for mortality 4 days after infestation.

[2] = tested on: Thrips tabaci (Onion Thrips); experiment: Thrips tabaci (onion thrips), feeding/contact activity, mortality; settings: 144 h, application rate 200 ppm, thrips population of mixed ages, 6 days after infestation, read-out: mortality
Procedure: Thrips tabaci (Onion Thrips): Feeding/Contact Activity
(§1) Sunflower leaf discs were placed on agar in 24-well microtiter plates and sprayed with aqueous test solutions prepared from 10′000 ppm DMSO stock solutions. After drying the leaf discs were infested with a thrips population of mixed ages. The samples were assessed for mortality 6 days after infestation.

[3] = tested on: Plutella xylostella (Diamond Back Moth, Larvicide L-2/3); experiment: Biological comparison: insecticidal activity against Plutella xylostella, larvicide L-2/3, sprayed Chinese cabbage plants; settings: 120 h
Procedure: Biological Comparison Data:
Compound A is disclosed in WO2014/122083 as example (Ic-2) (p. 82, Table 3). The activities of compounds A is compared with the activities of compound 41 and 42, according to the present invention. The tests are carried out at different concentrations (ppm).
a) Insecticidal Activity Against Plutella xylostella (Diamond Back Moth, Larvicide L-2/3, Feeding/Contact)
Chinese cabbage plants are sprayed with diluted test solutions in an application chamber. 1 day after treatment, excised leaves are placed in petri dishes and infested with 10 L2 (2 replicates). Samples are checked 5 days after infestation for mortality, feeding behavior, and growth regulation.

[4] = tested on: Plutella xylostella (Diamond Back Moth); experiment: Plutella xylostella (diamond back moth), feeding/contact activity on artificial diet, mortality; settings: 120 h, application rate 200 ppm, L2 larvae on artificial diet, 5 days after infestation, read-out: mortality
Procedure: Plutella xylostella (Diamond Back Moth): Feeding/Contact Activity
24-well microtiter plates with artificial diet were treated with aqueous test solutions prepared from 10′000 ppm DMSO stock solutions by pipetting. After drying, the plates were infested with L2 larvae (10 to 15 per well). The samples were assessed for mortality 5 days after infestation.

[5] = tested on: Euschistus heros (Neotropical Brown Stink Bug); experiment: Euschistus heros (neotropical brown stink bug), feeding/contact activity, mortality; settings: 120 h, application rate 200 ppm, N2 nymphs, 5 days after infestation, read-out: mortality
Procedure: Euschistus heros (Neotropical Brown Stink Bug): Feeding/contact activity
Soybean leaves on agar in 24-well microtiter plates were sprayed with aqueous test solutions prepared from 10′000 ppm DMSO stock solutions. After drying the leaves were infested with N2 nymphs. The samples were assessed for mortality 5 days after infestation.

[6] = tested on: Tetranychus urticae (Two-Spotted Spider Mite); experiment: Tetranychus urticae (two-spotted spider mite), feeding/contact activity, mortality; settings: 192 h, application rate 200 ppm, mixed population (mobile stages), 8 days after infestation
Procedure: Tetranychus urticae (Two-Spotted Spider Mite): Feeding/Contact Activity
as §1, with “Bean” for “Sunflower”, “discs” for “discs were placed”, “were” for “and”, “mite” for “thrips”, “on mixed population (mobile stages) 8” for “6”

[7] = tested on: Spodoptera littoralis (Egyptian Cotton Leaf Worm); experiment: Spodoptera littoralis (Egyptian cotton leaf worm), feeding/contact activity, mortality; settings: 72 h, application rate 200 ppm, L1 larvae, 3 days after infestation, read-out: mortality
Procedure: Spodoptera littoralis (Egyptian Cotton Leaf Worm): Feeding/Contact Activity
Cotton leaf discs were placed onto agar in 24-well microtiter plates and sprayed with aqueous test solutions prepared from 10′000 ppm DMSO stock solutions. After drying the leaf discs were infested with five L1 larvae. The samples were assessed for mortality 3 days after infestation.

[8] = tested on: Myzus persicae (Green Peach Aphid); experiment: Myzus persicae (green peach aphid), feeding/contact activity, mortality; settings: 144 h, application rate 200 ppm, aphid population of mixed ages, 6 days after infestation
Procedure: Myzus persicae (Green Peach Aphid): Feeding/Contact Activity
Sunflower leaf discs were placed onto agar in a 24-well microtiter plate and sprayed with aqueous test solutions prepared from 10′000 ppm DMSO stock solutions. After drying, the leaf discs were infested with an aphid population of mixed ages. The samples were assessed for mortality 6 days after infestation.

[9] = concentration 0.0125 ppm, L2 larvae, 5 days after infestation, read-out: Mortality (%)
[10] = concentration 0.05 ppm, L2 larvae, 5 days after infestation, read-out: Mortality (%)
[11] = concentration 0.2 ppm, L2 larvae, 5 days after infestation, read-out: Mortality (%)
[12] = concentration 0.8 ppm, L2 larvae, 5 days after infestation, read-out: Mortality (%)

Structure (SMILES): CCN(C(=O)c1cc(-c2cnn(-c3c(OC(F)F)c(C(F)(F)C(F)(F)F)nn3C)c2)ccc1Cl)C1(C#N)CC1 [Compound 42]
- mortality at 200 ppm [1]: ≥ 80%
- mortality at 200 ppm [2]: ≥ 80%
- mortality at 0.0125 ppm [3, 9]: 95%
- mortality at 0.05 ppm [3, 10]: 100%
- mortality at 0.2 ppm [3, 11]: 100%
- mortality at 0.8 ppm [3, 12]: 100%
- mortality at 200 ppm [4]: ≥ 80%
- mortality at 200 ppm [5]: ≥ 80%
- mortality at 200 ppm [6]: ≥ 80%
- mortality at 200 ppm [7]: ≥ 80%
- mortality at 200 ppm [8]: ≥ 80%

Structure (SMILES): Cn1nc(C(F)(F)C(F)(F)F)c(C(F)(F)F)c1-n1cc(-c2ccc(Cl)c(C(=O)NC3(C#N)CC3)c2)cn1 [Cpd A, reference compound]
- mortality at 0.0125 ppm [3]: 35%
- mortality at 0.05 ppm [3]: 85%
- mortality at 0.2 ppm [3]: 100%
- mortality at 0.8 ppm [3]: 100%

Structure (SMILES): CN(C(=O)c1cc(-c2cnn(-c3c(OC(F)F)c(C(F)(F)C(F)(F)F)nn3C)c2)ccc1Cl)C1(C#N)CC1 [Compound 41]
- mortality at 200 ppm [1]: ≥ 80%
- mortality at 200 ppm [2]: ≥ 80%
- mortality at 0.0125 ppm [3, 9]: 90%
- mortality at 0.05 ppm [3, 10]: 100%
- mortality at 0.2 ppm [3, 11]: 100%
- mortality at 0.8 ppm [3, 12]: 100%
- mortality at 200 ppm [4]: ≥ 80%
- mortality at 200 ppm [5]: ≥ 80%
- mortality at 200 ppm [6]: ≥ 80%
- mortality at 200 ppm [7]: ≥ 80%

Structure (SMILES): Cn1nc(C(F)(F)C(F)(F)F)c([S+]([O-])C2CC2)c1-n1cc(-c2ccc(Cl)c(C(=O)NC3CC3)c2)cn1 (stereo not drawn) [Compound 34]
- mortality at 200 ppm [1]: ≥ 80%
- mortality at 200 ppm [2]: ≥ 80%
- mortality at 200 ppm [4]: ≥ 80%
- mortality at 200 ppm [5]: ≥ 80%
- mortality at 200 ppm [6]: ≥ 80%
- mortality at 200 ppm [7]: ≥ 80%
- mortality at 200 ppm [8]: ≥ 80%

Structure (SMILES): Cn1nc(C(F)(F)C(F)(F)F)c(SC2CC2)c1-n1cc(-c2ccc(Cl)c(C(=O)NC3CC3)c2)cn1 [Compound 20]
- mortality at 200 ppm [1]: ≥ 80%
- mortality at 200 ppm [2]: ≥ 80%
- mortality at 200 ppm [4]: ≥ 80%
- mortality at 200 ppm [5]: ≥ 80%
- mortality at 200 ppm [6]: ≥ 80%
- mortality at 200 ppm [7]: ≥ 80%
- mortality at 200 ppm [8]: ≥ 80%

Structure (SMILES): Cn1nc(C(F)(F)C(F)(F)F)c(OC(F)F)c1-n1cc(-c2cnc(Cl)c(C(=O)NC3CC3)c2)cn1 [Compound 22]
- mortality at 200 ppm [1]: ≥ 80%
- mortality at 200 ppm [2]: ≥ 80%
- mortality at 200 ppm [4]: ≥ 80%
- mortality at 200 ppm [5]: ≥ 80%
- mortality at 200 ppm [6]: ≥ 80%
- mortality at 200 ppm [7]: ≥ 80%
- mortality at 200 ppm [8]: ≥ 80%

Structure (SMILES): Cn1nc(C(F)(F)C(F)(F)F)c(C2CC2)c1-n1cc(-c2ccc(Cl)c(C(=O)NC3(C#N)CC3)c2)cn1 [Compound 9]
- mortality at 200 ppm [1]: ≥ 80%
- mortality at 200 ppm [2]: ≥ 80%
- mortality at 200 ppm [4]: ≥ 80%
- mortality at 200 ppm [5]: ≥ 80%
- mortality at 200 ppm [6]: ≥ 80%
- mortality at 200 ppm [7]: ≥ 80%
- mortality at 200 ppm [8]: ≥ 80%

Structure (SMILES): Cn1nc(C(F)(F)C(F)(F)F)c([S+]([O-])C2CC2)c1-n1cc(-c2ccc(Cl)c(C(=O)NC3(C#N)CC3)c2)cn1 (stereo not drawn) [Compound 36]
- mortality at 200 ppm [1]: ≥ 80%
- mortality at 200 ppm [2]: ≥ 80%
- mortality at 200 ppm [4]: ≥ 80%
- mortality at 200 ppm [5]: ≥ 80%
- mortality at 200 ppm [6]: ≥ 80%
- mortality at 200 ppm [7]: ≥ 80%
- mortality at 200 ppm [8]: ≥ 80%
